Results published in paper PMC10415461 (Molecular Diversity, 2022).
≈ marks a conversion by molar mass, not a printed value. Where two headings read alike, the source gives them in different places.

Key:
[1] = test system: E. coli (ATCC 8739); experiment: Antibacterial MIC, standard agar cup diffusion method; type: cell-based; details: Escherichia coli, ATCC8739, 37 °C, 24 h, read-out: MIC E. coli (Gram-negative)
Description: (§1) The antibacterial and antifungal activities of compounds, ketone 1, 2a-j, and 5a-i were evaluated in vitro against S. aureus (ATCC 6538), P. aeruginosa (ATCC 10,145), E. coli (ATCC 8739), and C. albicans (ATCC 10,231). […] Standard strains of Staphylococcus aureus (ATCC 6538), Pseudomonas aeruginosa (ATCC 10,145), and Escherichia coli (ATCC 8739) were obtained from microbiological resource center, Faculty of Agriculture, Ain Shams University, Cairo, Egypt. All isolates were maintained at -70 °C in Trypticase Soya Broth (TSB, Becton, and Dickinson) with 10% glycerol. Prior to inoculation, all isolates were subcultured at 37 °C for 24 h on Trypticase Soya Agar (TSA, Becton, and Dickinson) and TSB, respectively.
(§2) The plates were rotated slowly to ensure uniform distribution of the microorganisms and then allowed to solidify on a flat surface. After solidification, four equidistant and circular wells of 10 mm diameter were carefully punched using a sterile cork bore. Twofold serial dilutions of the tested compounds using DMSO were performed. An equal volume of 100µL of each dilution was applied separately to each well in three replicates using a micropipette. All plates were incubated at 37 °C for 24 h. The inhibition zones were measured, and their average was calculated.

[2] = test system: P. aeruginosa (ATCC 10,145); experiment: as above; type: cell-based; details: Pseudomonas aeruginosa, ATCC 10145, 37 °C, 24 h, read-out: MIC P. aeruginosa (Gram-negative)
Description: as §1, §2

[3] = biological target: S. aureus DNA gyrase (Staphylococcus aureus, UniProt P0A0K8+P20831); experiment: Staphylococcus aureus DNA gyrase supercoiling assay; type: biochemical; details: supercoiling of relaxed pBR322, 37 °C, 30 min; read-out: S. aureus DNA gyrase IC50 ± SD
Chain of S. aureus DNA gyrase (P20831 whole entry): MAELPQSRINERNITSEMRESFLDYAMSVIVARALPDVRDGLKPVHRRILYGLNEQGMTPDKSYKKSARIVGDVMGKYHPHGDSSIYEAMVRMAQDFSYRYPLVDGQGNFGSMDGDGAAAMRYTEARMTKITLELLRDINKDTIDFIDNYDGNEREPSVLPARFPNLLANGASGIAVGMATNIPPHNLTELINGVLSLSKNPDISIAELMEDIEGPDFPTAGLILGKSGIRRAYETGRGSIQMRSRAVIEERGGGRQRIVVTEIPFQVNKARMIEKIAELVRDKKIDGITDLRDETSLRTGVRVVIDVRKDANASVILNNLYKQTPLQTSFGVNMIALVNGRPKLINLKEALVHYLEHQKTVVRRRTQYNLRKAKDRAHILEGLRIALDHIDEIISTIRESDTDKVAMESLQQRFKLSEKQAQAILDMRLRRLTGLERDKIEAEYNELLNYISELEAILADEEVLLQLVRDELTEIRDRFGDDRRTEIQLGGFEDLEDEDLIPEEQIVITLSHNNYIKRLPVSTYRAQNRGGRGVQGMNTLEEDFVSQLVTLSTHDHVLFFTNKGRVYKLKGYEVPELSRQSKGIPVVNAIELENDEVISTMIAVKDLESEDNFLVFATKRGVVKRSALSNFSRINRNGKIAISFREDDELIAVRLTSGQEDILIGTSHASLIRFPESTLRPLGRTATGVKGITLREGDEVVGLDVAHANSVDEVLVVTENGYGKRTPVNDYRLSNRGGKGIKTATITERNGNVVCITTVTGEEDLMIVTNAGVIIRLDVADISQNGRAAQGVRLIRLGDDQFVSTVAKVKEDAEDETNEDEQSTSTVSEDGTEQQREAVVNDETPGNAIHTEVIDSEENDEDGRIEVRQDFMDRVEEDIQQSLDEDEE
Chain of S. aureus DNA gyrase (P0A0K8 whole entry): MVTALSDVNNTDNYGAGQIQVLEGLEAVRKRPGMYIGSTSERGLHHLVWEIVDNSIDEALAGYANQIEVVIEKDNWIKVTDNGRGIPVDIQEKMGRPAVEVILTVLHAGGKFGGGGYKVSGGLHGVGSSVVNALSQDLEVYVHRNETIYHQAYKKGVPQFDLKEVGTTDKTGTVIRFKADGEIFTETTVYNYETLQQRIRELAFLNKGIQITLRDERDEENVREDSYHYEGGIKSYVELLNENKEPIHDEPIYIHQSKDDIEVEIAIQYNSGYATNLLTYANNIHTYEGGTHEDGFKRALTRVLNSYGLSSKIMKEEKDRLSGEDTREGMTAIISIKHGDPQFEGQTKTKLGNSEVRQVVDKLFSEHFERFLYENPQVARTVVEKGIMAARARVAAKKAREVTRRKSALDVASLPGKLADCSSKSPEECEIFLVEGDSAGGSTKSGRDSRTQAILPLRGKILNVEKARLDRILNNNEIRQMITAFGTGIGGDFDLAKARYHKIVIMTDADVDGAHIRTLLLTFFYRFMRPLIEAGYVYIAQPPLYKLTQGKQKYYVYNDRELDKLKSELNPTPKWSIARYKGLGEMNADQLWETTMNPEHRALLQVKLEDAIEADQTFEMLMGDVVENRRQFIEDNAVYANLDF
Description: As antibacterial agents, fluoroquinolones act by targeting and inhibiting DNA gyrase (topo II) which is an essential enzyme involved in the DNA replication process.
Staphylococcus aureus DNA gyrase was incubated at 37 °C for 30 min in a total reaction volume of 30 μl containing 40 mM HEPES. KOH (pH 7.6), 10 mM magnesium acetate, 10 mM DTT, 2 mM ATP, 500 mM potassium glutamate, 0.05 mg/ml albumin and Relaxed pBR322. DNA gyrase supercoiling reactions catalyzed by S. aureus gyrase, Stop reaction by adding 30 μL of STEB and 30 μL of chloroform/isoamyl alcohol (v:v, 24:1),and then Vortex briefly ~ 5 secs and centrifuge for 1 min. after which 20 µL of this was loaded on a 1% agarose gel that was then run at ~ 75 V for approximately 2 h. The gel was stained by (0.5 mg/L) ethidium bromide in water. Fluorescent images were taken at a wavelength of 300 nm on a UV transilluminator imaging system. The fluorescence intensity of the supercoiled plasmid reaction product was quantitated using ImagQuant software (Molecular Dynamics).

[4] = test system: S. aureus (ATCC 6538); experiment: Antibacterial MIC, standard agar cup diffusion method; type: cell-based, Staphylococcus aureus; details: 24 h; for MIC: Staphylococcus aureus, ATCC6538, 37 °C, read-out: MIC S. aureus (Gram-positive)
Description: as §1, §2

[5] = test system: C. albicans (ATCC 10,231); experiment: Antifungal MIC, agar cup diffusion method; type: cell-based, Candida albicans; details: Sabouraud agar, 37 °C; for MIC: Candida albicans, ATCC 10,231, 24 h, read-out: MIC C. albicans (Fungi); for MIC C. albicans (Fungi): 24 h
Description: The antibacterial and antifungal activities of compounds, ketone 1, 2a-j, and 5a-i were evaluated in vitro against S. aureus (ATCC 6538), P. aeruginosa (ATCC 10,145), E. coli (ATCC 8739), and C. albicans (ATCC 10,231). […] The antifungal activity of compounds 1, 2a-j, and 5a-i and ketoconazole were determined according to the agar cup diffusion method at Deraya University, Faculty of Pharmacy, Department of Microbiology.
Fungal strains and culture conditions. […] Standard strain of Candida albicans (ATCC 10,231) was obtained from microbiological resource center, Faculty of Agriculture, Ain Shams University, Cairo, Egypt. The isolate was maintained at -70 °C in Trypticase Soya Broth (TSB, Becton, and Dickinson) with 10% glycerol. Prior to inoculation, the isolate was subcultured at 37 °C for 24 h on Trypticase Soya Agar (TSA, Becton, and Dickinson) and TSB, respectively.
as §2

[6] = physchem; details: pH 7.8
Description: The n-octanol/water apparent partition coefficient at the isoelectric point (or distribution constant) was measured by using the traditional shake-flask technique. The pH of the aqueous buffer was first adjusted to isoelectric point of the compound. The n-octanol and aqueous phases were then mutually saturated before the measurement. […] The samples were agitated for 5h at water bath shaker thermostatized at 25 ± 1^◦C and 100 rpm. The concentration of the solute was determined in the aqueous and organic phases at the isoelectric point by UV spectroscopy the log p value was calculated as follows: […].

[7] = Solubility determination in phosphate buffer; type: physicochemical; details: aqueous buffer, thermodynamic from solid
Description: A sample of drug was accurately weighed and dissolved in 100 ml of distilled water to prepare 100 mcg/ml stock solutions. Appropriate dilution of the stock solution with phosphate buffer pH 6.8 and 7.8 was then made to prepare a working solution of 40mcg/ml.
After determination of λ max of drug, a calibration curve was constructed by preparing solutions containing different concentrations of (1–5 mcg/ml) from stock solution after appropriate dilution with phosphate buffer pH 6.8. The UV absorbance of the prepared sample solutions were measured at the predetermined λ max using phosphate buffer pH 6.8 as a blank.
Aqueous solubility of the complexes was measured as a function of pH. An excess of each derivative was placed into suitable stoppered containers. […] The samples were immersed in a water bath thermostatized at 37 ± 1^◦C and 100 rpm and periodically shaken for 48 h. Once the equilibrium was reached, the pH of the supernatant was regarded.

[8] = phosphate buffer pH 6.8, 37 °C, read-out: Solubility pH 6.8
[9] = phosphate buffer pH 7.8, 37 °C, read-out: Solubility pH 7.8

## Cc1ccc(-c2nc(SCC(=O)N3CCN(c4cc5c(cc4F)c(=O)c(C(=O)O)cn5C4CC4)CC3)[nH]c(=O)c2C#N)cc1 [Compound 5f]
[1]
  MIC: 3.89 µg/mL (≈ 6.33 µM)
[2]
  MIC: 2.95 µg/mL (≈ 4.8 µM)
[3]
  IC50: 3.5 ± 0.19 µM
[4]
  MIC: 4.79 µg/mL (≈ 7.79 µM)
[5]
  MIC: > 100 µg/mL
other
  melting point: 264 to 267 °C

## O=C(/C=C/c1ccccc1)c1ccc(NC(=O)N2CCN(c3cc4c(cc3F)c(=O)c(C(=O)O)cn4C3CC3)CC2)cc1 [Compound 2a]
[1]
  MIC: 0.64 µg/mL (≈ 1.1 µM)
[2]
  MIC: 1.12 µg/mL (≈ 1.93 µM)
[3]
  IC50: 3.47 ± 0.18 µM
[4]
  MIC: 0.74 µg/mL (≈ 1.27 µM)
[6]
  logD: 0.24
[5]
  MIC: > 100 µg/mL
[7]; [8]
  solubility at 48 h: 210 µg/mL (≈ 362 µM)
[7]; [9]
  solubility at 48 h: 150 µg/mL (≈ 258 µM)

## COc1ccc(/C=C/C(=O)c2ccc(NC(=O)N3CCN(c4cc5c(cc4F)c(=O)c(C(=O)O)cn5C4CC4)CC3)cc2)cc1 [Compound 2g]
[1]
  MIC: 17 µg/mL (≈ 27.8 µM)
[2]
  MIC: 6.25 µg/mL (≈ 10.2 µM)
[4]
  MIC: 8 µg/mL (≈ 13.1 µM)
[5]
  MIC: > 100 µg/mL

## CN(C)c1ccc(/C=C/C(=O)c2ccc(NC(=O)N3CCN(c4cc5c(cc4F)c(=O)c(C(=O)O)cn5C4CC4)CC3)cc2)cc1 [Compound 2h]
[1]
  MIC: 5.25 µg/mL (≈ 8.42 µM)
[2]
  MIC: 3.12 µg/mL (≈ 5.01 µM)
[4]
  MIC: 1.2 µg/mL (≈ 1.92 µM)
[6]
  Lipophilicity (log p): − 0.21
[5]
  MIC: 84.2 µg/mL (≈ 135 µM)
[7]; [8]
  solubility at 48 h: 680 µg/mL (≈ 1090 µM)
[7]; [9]
  solubility at 48 h: 780 µg/mL (≈ 1250 µM)

## CC(=O)c1ccc(NC(=O)N2CCN(c3cc4c(cc3F)c(=O)c(C(=O)O)cn4C3CC3)CC2)cc1 [Compound 1]
[1]
  MIC: 0.6 µg/mL (≈ 1.22 µM)
[2]
  MIC: 1.2 µg/mL (≈ 2.44 µM)
[4]; 37 °C
  MIC S. aureus (Gram-positive): 0.70 µg/mL (≈ 1.42 µM)
[4]
  MIC: 0.7 µg/mL (≈ 1.42 µM)
[5]
  MIC: > 100 µg/mL

## COc1ccc(/C=C/C(=O)c2ccc(NC(=O)N3CCN(c4cc5c(cc4F)c(=O)c(C(=O)O)cn5C4CC4)CC3)cc2)cc1OC [Compound 2i]
[1]
  MIC: 4.13 µg/mL (≈ 6.45 µM)
[2]
  MIC: 17 µg/mL (≈ 26.5 µM)
[4]
  MIC: 6.3 µg/mL (≈ 9.83 µM)
[6]
  Lipophilicity (log p): − 0.06
[5]
  MIC: > 100 µg/mL
[7]; [8]
  solubility at 48 h: 150 µg/mL (≈ 234 µM)
[7]; [9]
  solubility at 48 h: 190 µg/mL (≈ 297 µM)

## N#Cc1c(-c2ccc(F)cc2)nc(SCC(=O)N2CCN(c3cc4c(cc3F)c(=O)c(C(=O)O)cn4C3CC3)CC2)[nH]c1=O [Compound 5e, 7-(4-(2-((4-(4-Fluorophenyl)-5-cyano-6-oxo-1,6-dihydropyrimidin-2-yl)thio)acetyl)piperazin-1-yl)-1-cyclopropyl-6-fluoro-4-oxo-1,4-dihydroquinoline-3-carboxylic acid]
[1]
  MIC: 0.52 µg/mL (≈ 0.841 µM)
[2]
  MIC: 3.25 µg/mL (≈ 5.25 µM)
[3]
  IC50: 1.01 ± 0.05 µM
[4]
  MIC: 0.78 µg/mL (≈ 1.26 µM)
[5]
  MIC: 2.03 to 3.89 µg/mL (≈ 3.28 to 6.29 µM)
  MIC C. albicans (Fungi): 2.51 µg/mL (≈ 4.06 µM)
other
  melting point: 242 to 245 °C

## COc1cc(/C=C/C(=O)c2ccc(NC(=O)N3CCN(c4cc5c(cc4F)c(=O)c(C(=O)O)cn5C4CC4)CC3)cc2)cc(OC)c1OC [Compound 2j]
[1]
  MIC: 5.13 µg/mL (≈ 7.65 µM)
[2]
  MIC: 4.2 µg/mL (≈ 6.26 µM)
[4]
  MIC: 1.48 µg/mL (≈ 2.21 µM)
[6]
  logD: 0.34
[5]
  MIC: > 100 µg/mL
[7]; [8]
  solubility at 48 h: 180 µg/mL (≈ 268 µM)
[7]; [9]
  solubility at 48 h: 150 µg/mL (≈ 224 µM)

## Cc1ccc(/C=C/C(=O)c2ccc(NC(=O)N3CCN(c4cc5c(cc4F)c(=O)c(C(=O)O)cn5C4CC4)CC3)cc2)cc1 [Compound 2f]
[1]
  MIC: 9.33 µg/mL (≈ 15.7 µM)
[2]
  MIC: 3.7 µg/mL (≈ 6.22 µM)
[3]
  IC50: 1.77 ± 0.09 µM
[4]
  MIC: 0.94 µg/mL (≈ 1.58 µM)
[6]
  logD: 0.4
[5]
  MIC: > 100 µg/mL
[7]; [8]
  solubility at 48 h: 160 µg/mL (≈ 269 µM)
[7]; [9]
  solubility at 48 h: 170 µg/mL (≈ 286 µM)

## N#Cc1c(-c2ccc(Br)cc2)nc(SCC(=O)N2CCN(c3cc4c(cc3F)c(=O)c(C(=O)O)cn4C3CC3)CC2)[nH]c1=O [Compound 5d, 7-(4-(2-((4-(4-Bromophenyl)-5-cyano-6-oxo-1,6-dihydropyrimidin-2-yl)thio)acetyl)piperazin-1-yl)-1-cyclopropyl-6-fluoro-4-oxo-1,4-dihydroquinoline-3-carboxylic acid]
[1]
  MIC: 42.2 µg/mL (≈ 62.1 µM)
[2]
  MIC: 12.3 µg/mL (≈ 18.1 µM)
[4]
  MIC: 8.14 µg/mL (≈ 12 µM)
[5]
  MIC: 36.1 µg/mL (≈ 53.2 µM)
other
  melting point: 284 to 285 °C

## O=C(/C=C/c1ccc(F)cc1)c1ccc(NC(=O)N2CCN(c3cc4c(cc3F)c(=O)c(C(=O)O)cn4C3CC3)CC2)cc1 [Compound 2e]
[1]
  MIC: 0.53 µg/mL (≈ 0.885 µM)
[2]
  MIC: 0.96 µg/mL (≈ 1.6 µM)
[3]
  IC50: 3.81 ± 0.2 µM
[4]
  MIC: 0.89 µg/mL (≈ 1.49 µM)
[6]
  logD: 0.07
[5]
  MIC: 2.03 to 3.89 µg/mL (≈ 3.39 to 6.5 µM)
  MIC C. albicans (Fungi): 2.03 µg/mL (≈ 3.39 µM)
[7]; [8]
  solubility at 48 h: 160 µg/mL (≈ 267 µM)
[7]; [9]
  solubility at 48 h: 180 µg/mL (≈ 301 µM)

## O=C(/C=C/c1ccc(Br)cc1)c1ccc(NC(=O)N2CCN(c3cc4c(cc3F)c(=O)c(C(=O)O)cn4C3CC3)CC2)cc1 [Compound 2d]
[1]
  MIC: 4.78 µg/mL (≈ 7.25 µM)
[2]
  MIC: 7.25 µg/mL (≈ 11 µM)
[4]
  MIC: 2.65 µg/mL (≈ 4.02 µM)
[6]
  logD: 0.42
[5]
  MIC: > 100 µg/mL
[7]; [8]
  solubility at 48 h: 140 µg/mL (≈ 212 µM)
[7]; [9]
  solubility at 48 h: 160 µg/mL (≈ 243 µM)

## CC(=O)N1CCN(c2ccc(OCC3COC(Cn4ccnc4)(c4ccc(Cl)cc4Cl)O3)cc2)CC1 (stereo not drawn) [Ketoconazole, reference compound]
[5]
  MIC: 2.6 µg/mL (≈ 4.89 µM)
